From paper PMC9569995, “Study of Biological Activities and ADMET-Related Properties of Salicylanilide-Based Peptidomimetics” (International Journal of Molecular Sciences, 2022)
≈ marks a conversion by molar mass, not a printed value. Where “and” joins values, the source holds several entries; their conditions need not be identical. Equal values may be shown once. Read-outs that look alike come from different tables or passages of the source.

Tests used:
[1] = system: Mycobacterium tuberculosis H37Ra/ATCC 25177; experiment: In vitro antimycobacterial evaluation, MIC (alamarBlue); conditions: MT; 14 days, 37 °C
[2] = system: human monocytic leukemia cell line THP-1; experiment: In vitro cell viability analysis (CCK-8); type: cell-based; conditions: ± SD, n = 6, medium with 10% FBS, 24 h
Protocol: Human monocytic leukemia THP-1 cells obtained from the European Collection of Cell Cultures (ECACC, Salisbury, UK) were used for in vitro antiproliferative assays. They were routinely cultured in Roswell Park Memorial Institute RPMI 1640 medium supplemented with 10% fetal bovine serum (FBS), 2% L-glutamine, 1% penicillin, and streptomycin (all from Sigma-Aldrich) at 37 °C with 5% CO2. The cells were incubated in a complete medium (i.e., containing FBS) with test compounds at 37 °C with 5% CO2 for 24 h, similarly as we described previously. The effect of the test compounds dissolved in DMSO on cell viability was determined using a Cell Counting Kit-8 (CCK-8; Sigma) according to the manufacturer’s instructions.

[3] = system: Enterococcus faecalis ATCC 29212; experiment: Determination of minimum bactericidal concentrations (agar aliquot subculture); conditions: ATCC29212
[4] = system: Staphylococcus aureus ATCC 29213; experiment: as above; conditions: ATCC29213
[5] = Lipophilicity determination by HPLC; type: physicochemical; conditions: for log D6.5: HPLC C18, MeOH 72%/acetate-buffered saline pH 6.5 28%; for log D7.4: HPLC C18, MeOH 72%/acetate-buffered saline pH 7.4 28%; for log k: logarithm of capacity factor, HPLC C18, MeOH 72%/H2O 28%
Excerpt: . A chromatographic column Symmetry® C18 5 μm, 4.6 × 250 mm, Part No. W21751W016 (Waters Corp, Milford, MA, USA) was used. The HPLC separation process was monitored by ChemStation for LC 3D systems (Agilent Technologies). Isocratic elution by a mixture of MeOH (HPLC grade, 72%) and H2O-HPLC Mili-Q grade (28%) as a mobile phase was used for the determination of capacity factor k. Isocratic elution by a mixture of MeOH (HPLC grade, 72%) and acetate-buffered saline (pH 7.4 and pH 6.5) (28%) as a mobile phase was used for the determination of distribution coefficient expressed as D7.4 and D6.5. The total flow of the column was 1.0 mL/min, injection was 20 μL, column temperature was 40 °C, and sample temperature was 10 °C. The detection wavelength of 210 nm was chosen. A KI methanolic solution was used for the determination of the dead times (tD). Retention times (tR) were measured in minutes. The capacity factors k were calculated according to the formula k = (tR − tD)/tD, where tR is the retention time of the solute, and tD is the dead time obtained using an unretained analyte. The distribution coefficients DpH were calculated according to the formula DpH = (tR − tD)/tD. Each experiment was repeated three times.

[6] = system: methicillin-resistant S. aureus SA 630; experiment: In vitro antibacterial evaluation, MIC by microtitration broth method; conditions: Staphylococcus aureus, 24 h
[7] = system: methicillin-resistant S. aureus SA 3202; experiment: Determination of minimum bactericidal concentrations (agar aliquot subculture); conditions: Staphylococcus aureus
[8] = system: Enterococcus faecalis ATCC 29212; experiment: In vitro antibacterial evaluation, MIC by microtitration broth method; conditions: ATCC29212, 24 h
[9] = system: Staphylococcus aureus ATCC 29213; experiment: as above; conditions: ATCC29213, 24 h
[10] = system: methicillin-resistant S. aureus 63718; experiment: Determination of minimum bactericidal concentrations (agar aliquot subculture); conditions: Staphylococcus aureus
[11] = system: M. smegmatis; conditions: cited from earlier work
[12] = system: methicillin-resistant S. aureus 63718; experiment: In vitro antibacterial evaluation, MIC by microtitration broth method; conditions: Staphylococcus aureus, 24 h
[13] = system: Mycobacterium kansasii; conditions: cited from earlier work
[14] = system: methicillin-resistant S. aureus SA 3202; experiment: In vitro antibacterial evaluation, MIC by microtitration broth method; conditions: Staphylococcus aureus, 24 h
[15] = system: Bacillus cereus; conditions: cited from earlier work
[16] = system: M. smegmatis ATCC 700084; experiment: In vitro antimycobacterial evaluation, MIC (broth dilution micro-method); type: cell-based, Mycobacterium smegmatis
Protocol: For M. smegmatis, the broth dilution micro-method in Middlebrook 7H9 medium (Difco) supplemented with ADC Enrichment (Difco) was used. […] Bacterial inocula were prepared by transferring colonies from culture to sterile water. The cell density was adjusted to 0.5 McFarland units using a densitometer (Densi-La-Meter, LIAP, Riga, Latvia). The final inoculum was made by 1:1000 dilution of the suspension with sterile water. Drug-free controls, sterility controls, and controls consisting of medium and DMSO alone were included. The determination of results was performed visually after three days of static incubation in the darkness at 37 °C in an aerobic atmosphere.

[17] = system: vancomycin-resistant E. faecalis VRE 368; experiment: In vitro antibacterial evaluation, MIC by microtitration broth method; conditions: Enterococcus faecalis, 24 h
[18] = system: vancomycin-resistant E. faecalis VRE 368; experiment: Determination of minimum bactericidal concentrations (agar aliquot subculture); conditions: Enterococcus faecalis
[19] = system: vancomycin-resistant E. faecalis VRE 342B; experiment: as above; conditions: Enterococcus faecalis
[20] = system: vancomycin-resistant E. faecalis VRE 342B; experiment: In vitro antibacterial evaluation, MIC by microtitration broth method; conditions: Enterococcus faecalis, 24 h
[21] = system: vancomycin-resistant E. faecalis VRE 725B; experiment: as above; conditions: Enterococcus faecalis, 24 h
[22] = system: Clostridium perfringens; conditions: cited from earlier work
[23] = system: methicillin-resistant S. aureus SA 630; experiment: Determination of minimum bactericidal concentrations (agar aliquot subculture); conditions: Staphylococcus aureus
[24] = system: vancomycin-resistant E. faecalis VRE 725B; experiment: as above; conditions: Enterococcus faecalis
[25] = system: S. aureus ATCC 29123; experiment: Crystal violet uptake (membrane permeability); conditions: 4× MIC, 1 h; compared to growth control and 1% Tween 20
[26] = system: S. aureus ATCC 29213; experiment: MTT assay of bacterial viability (respiration); conditions: for Conc.: lowest multiple of MBC with at least 70% inhibition of S. aureus viability / Conc.: lowest multiple of MIC with at least 70% inhibition of S. aureus viability: MTT, 24 h
[27] = system: methicillin-resistant S. aureus 63718; design: method as in PMID 26079401; conditions: MRSA 63718 (VA2-MRSA); cited from earlier work
[28] = Mycolicibacterium smegmatis, ATCC700084, 72 h

Structure (SMILES) | MIC [1] | IC50 [2] | MBC [3] | MBC [4] | log D6.5 [5] | log D7.4 [5] | log k [5] | MIC [6] | MBC [7] | MIC [8] | MIC [9] | MBC [10] | MIC [12] | MIC [14] | MIC [17] | MBC [18] | MBC [19] | MIC [21] | MBC [23] | MBC [24] | further results
CC(C)[C@H](NC(=O)c1cc(Cl)ccc1O)C(=O)Nc1ccc(C(F)(F)F)cc1 [3c, 5-Chloro-2-hydroxy-N-[(2S)-3-methyl-1-oxo-1-{[4-(trifluoromethyl)phenyl]amino}butan-2-yl]benzamide] | 77.1 n.d. µM | > 10 µM | 38.6 µM (≈ 16 µg/mL) | 4.82 µM (≈ 2 µg/mL) | 0.973 | 0.934 | 1.081 | 4.82 µM (≈ 2 µg/mL) | 4.82 µM (≈ 2 µg/mL) | 38.6 µM (≈ 16 µg/mL) | 2.41 µM (≈ 1 µg/mL) | 9.64 µM (≈ 4 µg/mL) | 4.82 µM (≈ 2 µg/mL) | 4.82 µM (≈ 2 µg/mL) | 38.6 µM (≈ 16 µg/mL) | 38.6 µM (≈ 16 µg/mL) | 38.6 µM (≈ 16 µg/mL) | 38.6 µM (≈ 16 µg/mL) | 4.82 µM (≈ 2 µg/mL) | 38.6 µM (≈ 16 µg/mL) | MIC [11]: 77.1 µM (≈ 32 µg/mL); MIC [13]: 38.6 µM (≈ 16 µg/mL); MIC [15]: 2.41 µM (≈ 1 µg/mL); MIC [16, 28]: 77.1 µM (≈ 32 µg/mL); MIC [20]: 38.6 µM (≈ 16 µg/mL); MIC [22]: 4.82 µM (≈ 2 µg/mL)
CC(C)C[C@H](NC(=O)c1cc(Cl)ccc1O)C(=O)Nc1ccc(C(F)(F)F)cc1 [3f] | 18.7 µM and 18.7 n.d. µM | 1.9 ± 1.1 µM | 9.33 µM (≈ 4 µg/mL) | 1.17 µM (≈ 0.502 µg/mL) | 1.256 | 1.161 | 1.266 | 1.17 µM (≈ 0.502 µg/mL) | 1.17 µM (≈ 0.502 µg/mL) | 4.66 µM (≈ 2 µg/mL) | 1.17 µM (≈ 0.502 µg/mL) | 0.07 µM (≈ 0.03 µg/mL) | 0.07 µM (≈ 0.03 µg/mL) | 1.17 µM (≈ 0.502 µg/mL) | 9.33 µM (≈ 4 µg/mL) | 18.7 µM (≈ 8.02 µg/mL) | 18.7 µM (≈ 8.02 µg/mL) | 4.66 µM (≈ 2 µg/mL) | 1.17 µM (≈ 0.502 µg/mL) | 37.3 µM (≈ 16 µg/mL) | effect on plasma membrane permeability (crystal violet uptake) [25]: did not affect plasma membrane permeability; MIC ([16]; MS, three days, 37 °C): 18.7 n.d. µM; MIC [16, 28]: 18.7 µM (≈ 8.02 µg/mL); Conc.: lowest multiple of MBC with at least 70% inhibition of S. aureus viability [26]: 1× MIC (1× MBC); Conc.: lowest multiple of MIC with at least 70% inhibition of S. aureus viability [26]: 1× MIC (1× MBC); S. aureus Viability Inhibition ([26]; at 1× MIC (1× MBC)): 95.3%; viability of bacterial cells ([26]; at their MIC value or below): less than 70%
CSCC[C@H](NC(=O)c1cc(Cl)ccc1O)C(=O)Nc1ccc(C(F)(F)F)cc1 [3e, 5-Chloro-2-hydroxy-N-[(2S)-4-(methylsulfanyl)-1-oxo-1-{[4-(trifluoromethyl)phenyl]amino}butan-2-yl]benzamide] | 35.8 µM and 35.8 n.d. µM | > 10 µM | 35.8 µM (≈ 16 µg/mL) | 2.24 µM (≈ 1 µg/mL) | 1.021 | 0.963 | 1.076 | 4.48 µM (≈ 2 µg/mL) | 8.95 µM (≈ 4 µg/mL) | 17.9 µM (≈ 8 µg/mL) | 2.24 µM (≈ 1 µg/mL) | 8.95 µM (≈ 4 µg/mL) | 8.95 µM (≈ 4 µg/mL) | 8.95 µM (≈ 4 µg/mL) | 17.9 µM (≈ 8 µg/mL) | 35.8 µM (≈ 16 µg/mL) | 35.8 µM (≈ 16 µg/mL) | 35.8 µM (≈ 16 µg/mL) | 8.95 µM (≈ 4 µg/mL) | 35.8 µM (≈ 16 µg/mL) | effect on plasma membrane permeability (crystal violet uptake) [25]: did not affect plasma membrane permeability; MIC ([16]; MS, three days, 37 °C): 35.8 n.d. µM; MIC [16, 28]: 35.8 µM (≈ 16 µg/mL); MIC [20]: 35.8 µM (≈ 16 µg/mL); Conc.: lowest multiple of MBC with at least 70% inhibition of S. aureus viability [26]: 2× MIC (2× MBC); Conc.: lowest multiple of MIC with at least 70% inhibition of S. aureus viability [26]: 2× MIC (2× MBC); S. aureus Viability Inhibition ([26]; at 2× MIC (2× MBC)): 94% and 94.6%
CC1(C)S[C@@H]2[C@H](NC(=O)[C@H](N)c3ccccc3)C(=O)N2[C@H]1C(=O)O [APC, ampicillin, reference compound] | – | – | 2.81 µM (≈ 0.982 µg/mL) | > 5.72 µM | – | – | – | 45.8 µM (≈ 16 µg/mL) | > 45.8 µM | 2.81 µM (≈ 0.982 µg/mL) | 5.72 µM (≈ 2 µg/mL) | > 45.8 µM | 45.8 µM (≈ 16 µg/mL) | 45.8 µM (≈ 16 µg/mL) | 11.5 µM (≈ 4.02 µg/mL) | 11.5 µM (≈ 4.02 µg/mL) | 11.5 µM (≈ 4.02 µg/mL) | 11.5 µM (≈ 4.02 µg/mL) | > 45.8 µM | 11.5 µM (≈ 4.02 µg/mL) | MIC [20]: 11.5 µM (≈ 4.02 µg/mL); Conc.: lowest multiple of MBC with at least 70% inhibition of S. aureus viability [26]: 8× MIC (>8× MBC); Conc.: lowest multiple of MIC with at least 70% inhibition of S. aureus viability [26]: 8× MIC (>8× MBC); S. aureus Viability Inhibition ([26]; at 8× MIC (>8× MBC)): 90.0%
CN[C@H](CC(C)C)C(=O)N[C@H]1C(=O)N[C@@H](CC(N)=O)C(=O)N[C@H]2C(=O)N[C@H]3C(=O)N[C@H](C(=O)N[C@H](C(=O)O)c4cc(O)cc(O)c4-c4cc3ccc4O)[C@H](O)c3ccc(c(Cl)c3)Oc3cc2cc(c3O[C@@H]2O[C@H](CO)[C@@H](O)[C@H](O)[C@H]2O[C@H]2C[C@](C)(N)[C@H](O)[C@H](C)O2)Oc2ccc(cc2Cl)[C@H]1O [vancomycin] | – | – | – | – | – | – | – | – | – | – | – | – | – | – | – | – | – | – | – | – | MIC [27]: 2 µg/mL (≈ 1.38 µM)
